Data from the supplement of paper PMC11061612.

Tests used:
Assay in all cases: Bliss excess, mean over the matrix (fraction); higher = more synergy
[1] = tested on: A172 (Glioblastoma)
How it was run: (§1)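 Bliss excess equals the observed combination effect minus the expected value EA + EB − EA·EB, where EA and EB are the effects of each agent alone. Combination Emax is the second-highest inhibition within the matrix. Inhibition was scaled from CellTiter-Glo 2.0 luminescence, with 0 set by vehicle wells and 1 by blank wells, after 72 hours of two-drug dosing of cells plated in 1536-well plates.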

[2] = tested on: SK-MEL-1 (Melanoma)
How it was run: as §1

[3] = tested on: YT (Other Blood Carcinomas)
How it was run: as §1

[4] = tested on: SLVL (B-Cell Non-Hodgkin's Lymphoma)
How it was run: as §1

[5] = tested on: HCC-827 (Lung Adenocarcinoma)
How it was run: as §1

[6] = tested on: EFM-192A (Breast Carcinoma)
How it was run: as §1

[7] = tested on: HCT-116 (Colorectal Carcinoma)
How it was run: as §1

[8] = tested on: NOMO-1 (Acute Myeloid Leukemia)
How it was run: as §1

[9] = tested on: SNG-M (Endometrial Carcinoma)
How it was run: as §1

[10] = tested on: RCC10RGB (Kidney Carcinoma)
How it was run: as §1

[11] = tested on: EKVX (Non-Small Cell Lung Carcinoma)
How it was run: as §1

[12] = tested on: H4 (Low Grade Glioma)
How it was run: as §1

[13] = tested on: SKN-3 (Head and Neck Carcinoma)
How it was run: as §1

[14] = tested on: JHH-6 (Hepatocellular Carcinoma)
How it was run: as §1

[15] = tested on: MES-SA (Other Solid Carcinomas)
How it was run: as §1

[16] = tested on: WSU-DLCL2 (B-Cell Non-Hodgkin's Lymphoma)
How it was run: as §1

[17] = tested on: TYK-nu (Ovarian Carcinoma)
How it was run: as §1

[18] = tested on: Saos-2 (Osteosarcoma)
How it was run: as §1

[19] = tested on: BICR78 (Oral Cavity Carcinoma)
How it was run: as §1

[20] = tested on: PA-TU-8902 (Pancreatic Carcinoma)
How it was run: as §1

Structure (SMILES)	Bliss excess [1]	Bliss excess [2]	Bliss excess [3]	Bliss excess [4]	Bliss excess [5]	Bliss excess [6]	Bliss excess [7]	Bliss excess [8]	Bliss excess [9]	Bliss excess [10]	Bliss excess [11]	Bliss excess [12]	Bliss excess [13]	Bliss excess [14]	Bliss excess [15]	Bliss excess [16]	Bliss excess [17]	Bliss excess [18]	Bliss excess [19]	Bliss excess [20]
CN(C)CCCOc1ccc(-c2ccc3ncc4c(c3c2)n(C2CCOCC2)c(=O)n4C)cn1 [AZD0156] + C=CCn1c(=O)c2cnc(Nc3ccc(N4CCN(C)CC4)cc3)nc2n1-c1cccc(C(C)(C)O)n1 [AZD1775] (first compound max 1 µM, partner max 1 µM)	-0.0431	0.0161	-0.0273	-0.0203	0.0075	-0.0567	-0.0016	0.004	-0.0562	-0.0775	-0.0358	-0.0516	-0.0276	-0.0798	0.0372	-0.0119	-0.0836	-0.0379	-0.0107	-0.0339
CN(C)CCCOc1ccc(-c2ccc3ncc4c(c3c2)n(C2CCOCC2)c(=O)n4C)cn1 [AZD0156] + CCN(CCO)CCCOc1ccc2c(Nc3cc(CC(=O)Nc4cccc(F)c4)[nH]n3)ncnc2c1 [AZD2811] (first compound max 1 µM, 7x7, partner max 1 µM)	0.0239	-0.0356	0.0041	-0.0768	-0.0088	-0.0243	0.0233	0.0759	-0.0218	-0.039	-0.0473	-0.0077	-0.0239	-0.0083	0.0836	0.0362	-0.0179	0.0088	-0.047	-0.0223
CN(C)CCCOc1ccc(-c2ccc3ncc4c(c3c2)n(C2CCOCC2)c(=O)n4C)cn1 [AZD0156] + C[C@@H]1COCCN1C2=NC(=NC(=C2)C3(CC3)[S@](=N)(=O)C)C4=C5C=CNC5=NC=C4 [AZD6738] (first compound max 1 µM, 7x7, partner max 10 µM)	0.024	-0.0216	0.0104	-0.0134	-0.003	0.0073	-0.0047	0.0095	0.0138	-0.0129	-0.0388	-0.0404	0.0368	-0.01	0.0509	0.0712	-0.0143	-0.0133	0.0119	-0.0007
C=CCn1c(=O)c2cnc(Nc3ccc(N4CCN(C)CC4)cc3)nc2n1-c1cccc(C(C)(C)O)n1 [AZD1775] + C[C@@H]1COCCN1C2=NC(=NC(=C2)C3(CC3)[S@](=N)(=O)C)C4=C5C=CNC5=NC=C4 [AZD6738] (first compound max 1 µM, partner max 10 µM)	0.0433	-0.0125	0.0305	-0.0105	-0.0286	-0.0053	0.0252	0.0261	-0.0128	-0.137	-0.0087	-0.0949	0.0234	-0.0073	0.01	0.0763	-0.0711	0.0071		0.0315
C=CCn1c(=O)c2cnc(Nc3ccc(N4CCN(C)CC4)cc3)nc2n1-c1cccc(C(C)(C)O)n1 [AZD1775] + O=C(c1cc(Cc2n[nH]c(=O)c3ccccc23)ccc1F)N1CCN(C(=O)C2CC2)CC1 [Olaparib] (first compound max 1 µM, partner max 10 µM)	-0.0226	-0.0054	-0.008	-0.0005	-0.042	-0.0307	-0.0239	-0.027	-0.0105	-0.0166	-0.0564	-0.12	-0.0512	0.02	-0.0694	-0.0184	-0.108	-0.0422	0.0107	-0.0327
CCN(CCO)CCCOc1ccc2c(Nc3cc(CC(=O)Nc4cccc(F)c4)[nH]n3)ncnc2c1 [AZD2811] + C=CCn1c(=O)c2cnc(Nc3ccc(N4CCN(C)CC4)cc3)nc2n1-c1cccc(C(C)(C)O)n1 [AZD1775] (first compound max 1 µM, partner max 1 µM)	-0.0033	-0.0323	0.0367	-0.04	0.0272	-0.0883	0.0524	0.0412	-0.0356	-0.0716	-0.0599	-0.0637	-0.0154	0.0092	0.0752	0.013	-0.0586	0.029	0.0338	-0.006
CCN(CCO)CCCOc1ccc2c(Nc3cc(CC(=O)Nc4cccc(F)c4)[nH]n3)ncnc2c1 [AZD2811] + C[C@@H]1COCCN1C2=NC(=NC(=C2)C3(CC3)[S@](=N)(=O)C)C4=C5C=CNC5=NC=C4 [AZD6738] (first compound max 1 µM, 7x7, partner max 10 µM)	-0.0252	-0.0409	-0.0204	-0.0451	-0.0856	-0.0201	-0.0825	-0.0118	-0.0273	-0.0472	-0.0558	-0.0536	-0.0167	-0.0342	-0.0328	-0.0431	-0.0244	-0.0218	-0.0215	-0.0532
CCN(CCO)CCCOc1ccc2c(Nc3cc(CC(=O)Nc4cccc(F)c4)[nH]n3)ncnc2c1 [AZD2811] + O=C(c1cc(Cc2n[nH]c(=O)c3ccccc23)ccc1F)N1CCN(C(=O)C2CC2)CC1 [Olaparib] (first compound max 1 µM, 7x7, partner max 10 µM)	0.044	-0.0325	0.0623	-0.001	-0.0162	0.0138	-0.0109	0.0454	-0.018	-0.0004	-0.0303	-0.0046	-0.0236	-0.0127	0.0754	0.0463	-0.0152	0.0395	-0.0114	0.0081
CN(CCO)CC[C@H](CSc1ccccc1)Nc1ccc(S(=O)(=O)NC(=O)c2ccc(N3CCC([C@@H](O)c4ccccc4-c4ccc(Cl)cc4)CC3)cc2)cc1S(=O)(=O)C(F)(F)F [AZD4320] + C1CN(CCC1(C(=O)N[C@@H](CCO)C2=CC=C(C=C2)Cl)N)C3=NC=NC4=C3C=CN4 [Capivasertib] (first compound max 1 µM, 7x7, partner max 3 µM)	-0.0588	-0.0281	0.0135	0.0563	-0.0644	-0.0269	-0.0366	-0.0012	-0.054	-0.0576	-0.0309	-0.0397	-0.0375	-0.0437	-0.0088	0.0691	-0.038	0.0035	-0.0097	-0.0448
CN(CCO)CC[C@H](CSc1ccccc1)Nc1ccc(S(=O)(=O)NC(=O)c2ccc(N3CCC([C@@H](O)c4ccccc4-c4ccc(Cl)cc4)CC3)cc2)cc1S(=O)(=O)C(F)(F)F [AZD4320] + C=CCn1c(=O)c2cnc(Nc3ccc(N4CCN(C)CC4)cc3)nc2n1-c1cccc(C(C)(C)O)n1 [AZD1775] (first compound max 1 µM, partner max 1 µM)	-0.0101	-0.0091	-0.0156	0.0422	-0.0164	0.0171	-0.0294	0.0233	0.104	-0.0183	-0.0382	0.0551	-0.0056	-0.0095	-0.0017	-0.009	-0.0845	0.0348	0.0149	-0.0357
CN(CCO)CC[C@H](CSc1ccccc1)Nc1ccc(S(=O)(=O)NC(=O)c2ccc(N3CCC([C@@H](O)c4ccccc4-c4ccc(Cl)cc4)CC3)cc2)cc1S(=O)(=O)C(F)(F)F [AZD4320] + Cn1cnc2c(F)c(Nc3ccc(Br)cc3Cl)c(C(=O)NOCCO)cc21 [Selumetinib] (first compound max 1 µM, 7x7, partner max 3 µM)	-0.0071	0.0228	-0.0834	-0.401	-0.0011		-0.0232	0.143	0.0038	-0.0159	0.0109	-0.0002	0.0268	0.0455	0.0404	0.0155	-0.0839	-0.0016	0.0362	0.0696
Cc1c2c(nn1C)CSCc1cc(n(C)n1)CSc1cc(c3ccccc3c1)OCCCc1c(C(=O)O)n(C)c3c-2c(Cl)ccc13 [AZD5991] + C=CCn1c(=O)c2cnc(Nc3ccc(N4CCN(C)CC4)cc3)nc2n1-c1cccc(C(C)(C)O)n1 [AZD1775] (first compound max 1 µM, partner max 1 µM)	0.0736	-0.0137	-0.0725	-0.0346	-0.0243	-0.0297	0.0226	-0.01	-0.0456	-0.0182	0.0335	-0.042	0.0116	-0.0647	0.0402	-0.0245	0.0279		-0.0034	-0.0326
Cc1c2c(nn1C)CSCc1cc(n(C)n1)CSc1cc(c3ccccc3c1)OCCCc1c(C(=O)O)n(C)c3c-2c(Cl)ccc13 [AZD5991] + C[C@@H]1COCCN1C2=NC(=NC(=C2)C3(CC3)[S@](=N)(=O)C)C4=C5C=CNC5=NC=C4 [AZD6738] (first compound max 1 µM, 7x7, partner max 10 µM)	-0.0012	-0.0255	-0.0498	0.031		0.0335	0.0475	-0.0006	0.0516	0.0332	0.0337	0.0274	0.0678	-0.079	0.0653	0.0004	-0.0265	-0.0135	-0.0327	0.0111
Cc1c2c(nn1C)CSCc1cc(n(C)n1)CSc1cc(c3ccccc3c1)OCCCc1c(C(=O)O)n(C)c3c-2c(Cl)ccc13 [AZD5991] + Cc1cc2ncnn2cc1Nc1ncc2c(n1)n(C1CCOCC1)c(=O)n2C [AZD7648] (first compound max 1 µM, 7x7, partner max 10 µM)	-0.0426	-0.0152	0.0305	0.0016	-0.0476	-0.0394	0.013	0.0486	0.0071	0.0033	-0.069	0.0222	-0.032	-0.0622	0.0111	-0.0422	-0.0539	-0.014	-0.0172	
